These results are taken from ChEMBL document CHEMBL3044779, “The action of herbicides on fatty acid biosynthesis and elongation in barley and cucumber” (Pest Manag Sci, 2010).

The structures appear in SMILES notation. Active and inactive are the calls of the source. No cut-off for these calls is given here.

The test system of experiment [1] is Hordeum vulgare. Nature of the experiment: Inhibition of fatty acid synthesis in Hordeum vulgare (barley) using [14C]malonate assessed as [14C]-labeled 20C fatty acid level at 300 uM after 3 hr by liquid scintillation counting (reference value: 6.5 +/- 3.1 %). In kind it is functional. The arrangement: scale not given: the % may be the effect or the level left.

For experiment [2], the system named is Cucumis sativus. Nature of the experiment: Inhibition of fatty acid synthesis in Cucumis sativus (cucumber) using [14C]malonate assessed as [14C]-labeled 16C fatty acid level at 300 uM after 3 hr by liquid scintillation counting (reference value: 5.1 +/- 0.9%). In kind it is functional. Also noted: scale not given: the % may be the effect or the level left.

Experiment [3] has as its system Cucumis sativus. Nature of the experiment: Inhibition of fatty acid synthesis in Cucumis sativus (cucumber) using [14C]malonate assessed as [14C]-labeled 18C fatty acid level at 300 uM after 3 hr by liquid scintillation counting (reference value: 14.3 +/- 2%). The class given is functional. The arrangement: scale not given: the % may be the effect or the level left.

Experiment [4] concerns Cucumis sativus. Nature of the experiment: Inhibition of fatty acid synthesis in Cucumis sativus (cucumber) assessed as inhibition of [14C]acetate incoporation in total fatty acids at 300 uM measured as total disintegration per g of fresh weight after 3 hr by liquid scintillation counting (reference value: 4.4 +/- 1 dpm x 10^6 g'1 fresh wt). The class given is functional.

The subject of experiment [5] is Hordeum vulgare. Nature of the experiment: Inhibition of fatty acid synthesis in Hordeum vulgare (barley) using [14C]malonate assessed as [14C]-labeled 24C fatty acid level at 300 uM after 3 hr by liquid scintillation counting (reference value: 16.2 +/- 1.1 %). In kind it is functional. Also noted: scale not given: the % may be the effect or the level left.
For experiment [6], the system named is Cucumis sativus. Nature of the experiment: Inhibition of fatty acid synthesis in Cucumis sativus (cucumber) using [14C]acetate assessed as [14C]-labeled 18C fatty acid level at 300 uM after 3 hr by liquid scintillation counting (reference value: 33.5 +/- 1.5%). The class given is functional. Also noted: scale not given: the % may be the effect or the level left.

Experiment [7] deals with Cucumis sativus. Nature of the experiment: Inhibition of fatty acid synthesis in Cucumis sativus (cucumber) using [14C]malonate assessed as [14C]-labeled 24C fatty acid level at 300 uM after 3 hr by liquid scintillation counting (reference value: 26.4 +/- 5.5%). In kind it is functional. The arrangement: scale not given: the % may be the effect or the level left.
The test system of experiment [8] is Cucumis sativus. Nature of the experiment: Inhibition of fatty acid synthesis in Cucumis sativus (cucumber) using [14C]malonate assessed as [14C]-labeled 22C fatty acid level at 300 uM after 3 hr by liquid scintillation counting (reference value: 42.5 +/- 0.6%). The class given is functional. The arrangement: scale not given: the % may be the effect or the level left.

The subject of experiment [9] is Hordeum vulgare. Nature of the experiment: Inhibition of fatty acid synthesis in Hordeum vulgare (barley) assessed as inhibition of [14C]malonate incoporation in total fatty acids at 300 uM measured as total disintegration per g of fresh weight after 3 hr by liquid scintillation counting (reference value: 9.4 +/- 2.5 dpm x 10^6 g'1 fresh wt). In kind it is functional.

Experiment [10] deals with Cucumis sativus. Nature of the experiment: Inhibition of fatty acid synthesis in Cucumis sativus (cucumber) using [14C]malonate assessed as [14C]-labeled 20C fatty acid level at 300 uM after 3 hr by liquid scintillation counting (reference value: 11.7 +/- 2%). In kind it is functional. The arrangement: scale not given: the % may be the effect or the level left.
For experiment [11], the system named is Hordeum vulgare. Nature of the experiment: Inhibition of fatty acid synthesis in Hordeum vulgare (barley) using [14C]acetate assessed as reduction in [14C]-labeled 22C fatty acid level at 300 uM after 3 hr by liquid scintillation counting. The class given is functional, organism-based.
The test system of experiment [12] is Hordeum vulgare. Nature of the experiment: Inhibition of fatty acid synthesis in Hordeum vulgare (barley) using [14C]malonate assessed as [14C]-labeled 18C fatty acid level at 300 uM after 3 hr by liquid scintillation counting (reference value: 12.5 +/- 3.9 %). In kind it is functional. Also noted: scale not given: the % may be the effect or the level left.

Experiment [13] concerns Hordeum vulgare. Nature of the experiment: Inhibition of fatty acid synthesis in Hordeum vulgare (barley) using [14C]acetate assessed as [14C]-labeled 16C fatty acid level at 300 uM after 3 hr by liquid scintillation counting (reference value: 30.6 +/- 0.2%). The class given is functional. Also noted: scale not given: the % may be the effect or the level left.
In experiment [14] the test system is Hordeum vulgare. Nature of the experiment: Inhibition of fatty acid synthesis in Hordeum vulgare (barley) assessed as inhibition of [14C]acetate incoporation in total fatty acids at 300 uM measured as total disintegration per g of fresh weight after 3 hr by liquid scintillation counting (reference value: 5.8 +/- 1.6 dpm x 10^6 g'1 fresh wt). In kind it is functional.

Experiment [15] deals with Hordeum vulgare. Nature of the experiment: Inhibition of fatty acid synthesis in Hordeum vulgare (barley) using [14C]acetate assessed as reduction in [14C]-labeled 20C fatty acid level at 300 uM after 3 hr by liquid scintillation counting. The class given is functional, organism-based.
The test system of experiment [16] is Hordeum vulgare. Nature of the experiment: Inhibition of fatty acid synthesis in Hordeum vulgare (barley) using [14C]malonate assessed as [14C]-labeled 16C fatty acid level at 300 uM after 3 hr by liquid scintillation counting (reference value: 8.1 %). In kind it is functional. Also noted: scale not given: the % may be the effect or the level left.
In experiment [17] the test system is Cucumis sativus. Nature of the experiment: Inhibition of fatty acid synthesis in Cucumis sativus (cucumber) using [14C]acetate assessed as reduction in [14C]-labeled 20C fatty acid level at 300 uM after 3 hr by liquid scintillation counting relative to control. In kind it is functional, organism-based.
The test system of experiment [18] is Cucumis sativus. Nature of the experiment: Inhibition of fatty acid synthesis in Cucumis sativus (cucumber) using [14C]acetate assessed as [14C]-labeled 16C fatty acid level at 300 uM after 3 hr by liquid scintillation counting (reference value: 27.6 +/- 5.1%). Also noted: scale not given: the % may be the effect or the level left. The class given is functional.

The test system of experiment [19] is Hordeum vulgare. Nature of the experiment: Inhibition of fatty acid synthesis in Hordeum vulgare (barley) using [14C]acetate assessed as [14C]-labeled 18C fatty acid level at 300 uM after 3 hr by liquid scintillation counting (reference value: 57 +/- 0.9%). The arrangement: scale not given: the % may be the effect or the level left. In kind it is functional.

The subject of experiment [20] is Hordeum vulgare. Nature of the experiment: Inhibition of fatty acid synthesis in Hordeum vulgare (barley) using [14C]acetate assessed as reduction in [14C]-labeled 24C fatty acid level at 300 uM after 3 hr by liquid scintillation counting. The class given is functional, organism-based.
In experiment [21] the test system is Cucumis sativus. Nature of the experiment: Inhibition of fatty acid synthesis in Cucumis sativus (cucumber) assessed as inhibition of [14C]malonate incoporation in total fatty acids at 300 uM measured as total disintegration per g of fresh weight after 3 hr by liquid scintillation counting (reference value: 16.3 +/- 1.1 dpm x 10^6 g'1 fresh wt). The class given is functional.

Experiment [22] relates to Hordeum vulgare. Nature of the experiment: Inhibition of fatty acid synthesis in Hordeum vulgare (barley) using [14C]malonate assessed as [14C]-labeled 22C fatty acid level at 300 uM after 3 hr by liquid scintillation counting (reference value: 32.8 +/- 2.3%). The class given is functional. Also noted: scale not given: the % may be the effect or the level left.

For `COCCN(C(=O)CCl)c1c(C)cccc1C` [DIMETHACHLOR], the Activity worked out at 8.5% in the experiment with Hordeum vulgare [1]; 20.4% in the experiment on Cucumis sativus [2]; 46.8% in the experiment on Cucumis sativus [3]; 2.9 ×10⁶ dpm in the experiment with Cucumis sativus [4]; 5.8% in the experiment on Hordeum vulgare [5]; 63.9% in the experiment with Cucumis sativus [6]. Further, the Activity worked out at 9.3% in the experiment with Cucumis sativus [7]; 12.5% in the experiment on Cucumis sativus [8]; 6.8 ×10⁶ dpm in the experiment with Hordeum vulgare [9]; 11.2% in the experiment on Cucumis sativus [10]; 7.3% in the experiment on Hordeum vulgare [12]; 36.1% in the experiment with Hordeum vulgare [13]. Moreover, the Activity is listed as 5.9 ×10⁶ dpm with Hordeum vulgare [14]; 14% with Hordeum vulgare [16]; 36.2% in the experiment on Cucumis sativus [18]; 63.9% in the experiment on Hordeum vulgare [19]; 9.4 ×10⁶ dpm with Cucumis sativus [21]; 18.1% with Hordeum vulgare [22]. The inhibition entry in the experiment with Hordeum vulgare [11], in the experiment with Hordeum vulgare [15], with Cucumis sativus [17] and in the experiment with Hordeum vulgare [20] was “Active” throughout.
